Results: ChEMBL document CHEMBL1201862, “PubChem BioAssay data set” (2004)
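96-well plates; 48 h exposure; 5 concentrations. Endpoints by linear interpolation between flanking doses. Not reached: highest tested concentration assigned. Here, GI50 denotes the concentration required for 50% inhibition of growth.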 Calls of active or inactive are those of the source. Cut-off read from the data, not from the text of the source: active = GI50 up to about 1.1 µM and inactive = higher.

Assays:
Assay in all cases: inhibition of tumour cell growth, NCI panel, 48 h
[1] = system: A549
[2] = system: ACHN
[3] = system: HOP-92
[4] = system: LOX IMVI
[5] = system: M14
[6] = system: NCI-H226
[7] = system: OVCAR-4
[8] = system: OVCAR-8
[9] = system: RXF 393
[10] = system: SF-295
[11] = system: SF-539
[12] = system: SK-MEL-28
[13] = system: SNB-19
[14] = system: UACC-257
[15] = system: UO-31

Measured: GI50

CCOc1ccc(OP2(=O)NC(=O)C=C(C)N2)cc1 (stereo not drawn)
inactive: [1] > 100 µM | [2] 90.8 µM | [3] > 100 µM | [4] > 100 µM | [5] > 100 µM | [6] > 100 µM | [7] > 100 µM | [8] > 100 µM | [9] > 100 µM | [10] > 100 µM | [11] > 100 µM | [12] > 100 µM | [13] > 100 µM | [14] > 100 µM | [15] > 100 µM

CCOc1nc(OCC)nc(-c2cccn2-c2ccccc2)n1
inactive: [1] 37.1 µM | [2] 32.2 µM | [5] 38.3 µM | [6] 32.7 µM | [7] 25.8 µM | [8] 35.5 µM | [9] 29.5 µM | [10] 33.7 µM | [11] 51.5 µM | [12] 35.4 µM | [13] 31.4 µM | [14] 40.5 µM | [15] 22.1 µM

O=C(c1ccncc1)n1nc(-c2ccccc2)c(/N=N/c2ccc([N+](=O)[O-])cc2)c1-c1ccccc1
inactive: [1] 55.7 µM | [3] 27.5 µM | [5] 92 µM | [6] 2.37 µM | [7] 15 µM | [8] 91.2 µM | [10] 44.7 µM | [11] 89.5 µM | [12] > 100 µM | [13] 31.6 µM | [14] 92.3 µM | [15] 15.9 µM

O=C1CCC(Cl)=CC2CCCN12 (stereo not drawn)
inactive: [1] > 100 µM | [2] > 100 µM | [3] > 100 µM | [4] > 100 µM | [5] > 100 µM | [6] > 100 µM | [8] > 100 µM | [9] > 100 µM | [11] > 100 µM | [12] > 100 µM | [13] > 100 µM | [14] > 100 µM | [15] > 100 µM

COc1ccc2c([nH]c3cc(O)c(C)cc32)c1C=O
inactive: [1] 18.5 µM | [2] > 25 µM | [3] > 25 µM | [4] > 25 µM | [5] > 25 µM | [6] > 25 µM | [7] > 25 µM | [8] > 25 µM | [9] > 25 µM | [11] > 25 µM | [12] > 25 µM | [13] > 25 µM | [15] > 25 µM

CC1C=CC(C(N)C(=O)O)O1 (stereo not drawn)
inactive: [1] > 100 µM | [2] > 100 µM | [3] > 100 µM | [4] > 100 µM | [5] > 100 µM | [6] > 100 µM | [7] > 100 µM | [8] > 100 µM | [9] > 100 µM | [10] > 100 µM | [11] > 100 µM | [12] > 100 µM | [13] > 100 µM | [15] > 100 µM

Nn1c(S)nnc1N/N=C1/C(=O)Nc2c(Cl)cc(Cl)cc21
inactive: [1] > 100 µM | [2] 76.9 µM | [3] 73.1 µM | [4] 48.5 µM | [5] > 100 µM | [6] 52.1 µM | [7] > 100 µM | [8] > 100 µM | [9] 17.9 µM | [10] > 100 µM | [11] > 100 µM | [13] 76 µM | [14] > 100 µM | [15] 47.6 µM

Nc1ccc2nc(Nc3ccc(Cl)c(Cl)c3)cnc2c1
inactive: [1] 15.7 µM | [2] 22.2 µM | [4] 14.7 µM | [5] 14.3 µM | [6] 15.5 µM | [7] 17 µM | [8] 26.2 µM | [10] > 10 µM | [11] 29.5 µM | [12] 17.6 µM | [13] 17.3 µM | [14] 25.8 µM | [15] 11.9 µM

CC(=O)O/N=C(Cl)/C(Cl)=N/OC(C)=O
inactive: [1] > 100 µM | [2] > 100 µM | [3] > 100 µM | [4] > 100 µM | [5] > 100 µM | [6] > 100 µM | [7] > 100 µM | [8] > 100 µM | [9] > 100 µM | [10] > 100 µM | [11] > 100 µM | [12] > 100 µM | [13] > 100 µM | [14] > 100 µM | [15] > 100 µM

C=CCNC(=S)OCCCCCCCCCC
inactive: [1] 25.3 µM | [2] 18.5 µM | [4] 13.6 µM | [5] 18.1 µM | [7] 16.5 µM | [8] 17.1 µM | [9] 15.5 µM | [10] 19.1 µM | [11] 19 µM | [12] 23.6 µM | [13] 30.8 µM | [14] 18.8 µM | [15] 12.3 µM

CC1OC(n2ccc(=O)[nH]c2=O)C=C(OC(=O)c2ccccc2)C1=O (stereo not drawn)
inactive: [1] 39.3 µM | [2] 76.7 µM | [3] 30.2 µM | [4] 35.7 µM | [5] 88.9 µM | [7] 18.9 µM | [8] 45 µM | [9] 95.5 µM | [10] 51.1 µM | [11] > 100 µM | [12] 48.6 µM | [13] > 100 µM | [14] 86.9 µM | [15] 55.6 µM

CC(=O)OCC1OC(N=[N+]=[N-])C(OC(C)=O)C(OC(C)=O)C1OC1OC(COC(C)=O)C(OC(C)=O)C(OC(C)=O)C1OC(C)=O (stereo not drawn)
inactive: [1] > 100 µM | [2] > 100 µM | [4] > 100 µM | [5] > 100 µM | [7] > 100 µM | [8] > 100 µM | [9] 35.7 µM | [10] > 100 µM | [11] 58.6 µM | [12] > 100 µM | [13] 64.1 µM | [14] > 100 µM | [15] > 100 µM

CN1CCc2c1nc(-c1ccccc1)c1c2N(C)CC1
inactive: [1] > 100 µM | [2] > 100 µM | [3] 29.7 µM | [4] 49 µM | [5] 44.8 µM | [7] 57 µM | [8] 57.4 µM | [9] 43.9 µM | [10] 30.1 µM | [11] 60.8 µM | [13] 90.4 µM | [14] 93.5 µM | [15] 14.7 µM

O=C(CC1C(=O)Nc2ccccc2[S+]1[O-])Nc1cc(Cl)ccc1Cl (stereo not drawn)
inactive: [1] > 100 µM | [2] > 100 µM | [3] > 100 µM | [4] > 100 µM | [5] > 100 µM | [6] > 100 µM | [8] > 100 µM | [9] > 100 µM | [10] > 100 µM | [11] > 100 µM | [12] > 100 µM | [13] > 100 µM | [14] > 100 µM | [15] > 100 µM

FC(F)(F)c1cccc2ns[s+]c12
inactive: [1] > 100 µM | [2] > 100 µM | [4] > 100 µM | [5] > 100 µM | [6] > 100 µM | [7] > 100 µM | [8] > 100 µM | [9] > 100 µM | [10] > 100 µM | [11] > 100 µM | [12] > 100 µM | [13] > 100 µM | [14] > 100 µM | [15] > 100 µM
